Data from US8524304B2, “High-potency sweetener composition with probiotics/prebiotics and compositions sweetened therewith” (The Coca-Cola Company, priority 2005, dated 2013).

Columns and labels:
[1] = format: physicochemical
Description: A solution of rebaudioside A (>97% pure by HPLC ) was prepared in double distilled water (12.5 gm in 50 mL, 25% concentration) by stirring the mixture at 40° C. for 5 minutes. An amorphous form of rebaudioside A was formed by immediately using the clear solution for spray drying with the Lab-Plant spray drier SD-04 instrument (Lab-Plant Ltd., West Yorkshire, U.K.). The solution was fed through the feed pump into the nozzle atomizer which atomized it into a spray of droplets with the help of a constant flow of nitrogen/air. […] This dry powder (11-12 g, H2O 6.74%) was discharged continuously from the drying chamber and was collected in a bottle.

[2] = Rate of dissolution of rebaudioside A polymorph and amorphous forms in H2O at 25° C.; format: physicochemical
[3] = Sensory evaluation of sweetness linger by a panel of experts; format: in vivo; design: key: 0: no sweetness linger; 1: very slight sweetness linger; 2: slight sweetness linger; 3: moderate sweetness linger; 4: moderately high sweetness linger; 5: high sweetness linger; conditions: scale 0-5
Description: Sensory evaluation of the samples prepared in Example Set G was carried out under the following protocol, similar to that described hereinabove. In this test protocol, none of the samples were swallowed. All samples were expectorated and the mouth was rinsed with water after the tasting. Immediately upon sensing maximal sweetness, the sample was expectorated, the mouth was rinsed with water and the rate of sweetness decay (“Sweetness Linger”) was measured, where attention was focused on the sweetness 3-4 min after the water rinse. After sample tasting was complete, a salty oyster cracker was chewed followed by a water rinse, and at least 5 minutes followed before tasting the next sample. The sweetness linger was rated by a panel of experts in the sensory evaluation of foods and beverages using the following scale: 0=no sweetness linger, 1=very slight sweetness linger, 2=slight sweetness linger, 3=moderate sweetness linger, 4=moderately high sweetness linger, 5=high sweetness linger.
The “Sweetness Linger” rating for sucrose observed by this protocol is defined as 0. The Sweetness Linger of a 500 ppm of REBA control sample is defined as 5. Experimental samples were tasted by the same protocol, always allowing sufficient time between samples to ensure re-equilibration of the sensory system. Re-tasting of control samples during the course of the experiment was allowed and encouraged. […]
Sweet taste improving compositions were combined with a REBA solution to determine their effect on sweetness linger, Screening of the initial sample, or further dilutions, allowed identification of concentrations which were just above-threshold, herein defined as “near-threshold concentrations.” The near-threshold additive concentrations, a 6- to 100-fold higher higher additive concentration (depending on the off-taste intensity), and a mid-level additive concentration (halfway between the near-threshold and higher additive concentration) were evaluated to determine the effect on sweetness linger of a REBA solution. […]

Row | SMILES | solubility in water at room temperature [1] [%] | Rate of dissolution in H2O at 25° C. [2] | sweetness linger ([3]; Example Set G: citric acid/potassium citrate composition equivalent to a diet lemon-lime beverage, 400 ppm REBA base, sweetness 3-4 min after water rinse) | sweetness linger ([3]; Example Set H: carbon-treated water with phosphoric acid (75%) to pH 2.4-2.5, 500 ppm REBA base) | Sweetness Linger rating ([3]; control ratings defined for the protocol)
1 | C=C1C[C@@]23CC[C@H]4[C@@](C)(CCC[C@@]4(C)C(=O)O[C@@H]4O[C@H](CO)[C@@H](O)[C@H](O)[C@H]4O)[C@@H]2CC[C@]1(O[C@@H]1O[C@H](CO)[C@@H](O)[C@H](O[C@@H]2O[C@H](CO)[C@@H](O)[C@H](O)[C@H]2O)[C@H]1O[C@@H]1O[C@H](CO)[C@@H](O)[C@H](O)[C@H]1O)C3 [Form 4, rebaudioside A] | > 35.0 | High (>35%/5 %/5 minutes | – | – | –
2 | C=C1C[C@@]23CC[C@H]4[C@@](C)(CCC[C@@]4(C)C(=O)O[C@@H]4O[C@H](CO)[C@@H](O)[C@H](O)[C@H]4O)[C@@H]2CC[C@]1(O[C@@H]1O[C@H](CO)[C@@H](O)[C@H](O[C@@H]2O[C@H](CO)[C@@H](O)[C@H](O)[C@H]2O)[C@H]1O[C@@H]1O[C@H](CO)[C@@H](O)[C@H](O)[C@H]1O)C3 [REBA, rebaudioside A] | – | – | 5 | 5 | 5
